This passage reports TGI and GI50 results from PubChem BioAssay (NCI).

Several values for one entry are separate records, joined by “and”; a condition that tells them apart may be missing. Equal values may be shown once.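 Compound exposure: 48 hours, 5 concentrations, 96-well plates. GI50 marks 50% less growth. TGI: total growth inhibition.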 A value given as a limit tells only on which side of the number the result lay.

Holding throughout (experiment): growth of human tumour cells (NCI), 48 h
Assay [1] relates to 786-0 renal.
Assay [2] has as its system A498 renal.
Assay [3] relates to CAKI-1 renal.
Assay [4] has as its system HCC-2998 colon.
The subject of assay [5] is OVCAR-5 ovarian.
Assay [6] has as its system OVCAR-8 ovarian.
For assay [7], the system named is RPMI-8226 leukemia.
Assay [8] relates to SF-539 CNS.
Assay [9] has as its system SK-MEL-2 melanoma.
The subject of assay [10] is SR leukemia.
The test system of assay [11] is U251 CNS.
Assay [12] relates to UO-31 renal.

As for `COC(=O)c1c(O)ccc2c1c1cc3ccccc3c(O)c1n2CCc1ccc(OC)c(OC)c1`, the TGI in assay [1] is over 100 µM; in [2], over 100 µM; in assay [3], over 100 µM; in assay [4], 86.8 µM; in assay [5], over 100 µM; in assay [6] it was over 100 µM. The TGI in [7], in assay [8], in assay [9], in assay [10], in assay [11] and in [12] was over 100 µM each time.
With `Cc1c(-c2ccccc2)[nH]c2cn[nH]c(=O)c12`, the TGI in assay [1], in [2], in assay [3], in assay [4], in assay [5] and in [6] was over 100 µM each time. The TGI in assay [7], in assay [8], in assay [9], in assay [10], in assay [11] and in [12] was over 100 µM each time.
For `O=C(Nc1ccccc1)Oc1ccc(C(=S)Nc2ccc(Br)cc2)cc1`, the TGI stood at 52.2 µM in assay [1]; 54.5 µM in assay [2]; 41 µM in assay [3]; 40.8 µM in [4]; 46.4 µM in [5]; 29.2 µM in [6]. The TGI in assay [7] was over 100 µM; in assay [8], 53 µM; in assay [9], 47.8 µM; in [10] it was 50.8 µM; in assay [11], 56.1 µM.
Turning to `COc1ccc(N2C(=O)C(=O)C3(CCCCC3)C2=O)c2ccccc12`, the TGI in [2], in assay [3], in assay [4], in [5], in [6] and in assay [7] was over 10 µM in each case. Also, the TGI in [8], in assay [9], in assay [10], in assay [11] and in assay [12] was over 10 µM throughout.
Take `COc1ccc2nc3cc(Cl)ccc3c(NCCCN3CCN(CCCNc4ccc5nnn6c7ccccc7c(=O)c4c56)CC3)c2c1`: the TGI was over 25 µM in [1]; over 25 µM in assay [2]; over 15.8 µM in [3]; over 9.86 µM in [4]; over 25 µM in assay [5]; over 25 µM in assay [6]. Moreover, the TGI in [7] was over 25 µM; in assay [8] it was 8.14 µM; in assay [9] it was over 25 µM; in [10], over 25 µM; in assay [11], over 25 µM; in [12] it was over 25 µM.
As for `COc1ccccc1-c1c(C#N)c(N)[nH]c(=S)c1C#N`, the TGI in assay [1], in [2], in assay [3], in assay [4], in [5] and in assay [6] was over 100 µM throughout. Further, the TGI in assay [7], in [8], in assay [9], in assay [10], in assay [11] and in assay [12] was over 100 µM throughout.
With `O=C(Cc1nc2ccccc2[nH]c1=O)c1c[nH]c2ccccc12`, the TGI in [1] turned out to be 29.3 µM; in assay [2], 51.9 µM; in [3], 63.4 µM; in assay [4], 41.6 µM; in assay [5] it was 57.1 µM; in [6], 45.9 µM. The TGI in [7] was over 100 µM; in assay [8], 35.2 µM; in assay [9], 28.9 µM; in assay [10], over 100 µM; in [11], 33 µM; in assay [12], 33.7 µM.
For the compound `COC(=O)/C=C\C(C#N)(C#N)N=Cc1ccc(OC)cc1`, the TGI turned out to be 4.62 µM in [1]; 33 µM in [2]; 4.48 µM in assay [3]; 41.1 µM in assay [4]; 40.7 µM in assay [5]; 9.46 µM in [6]. For the same compound, the TGI was 2.87 µM in [7]; 11.2 µM in [8]; 35.5 µM in [9]; 3.99 µM in [10]; 35.2 µM in assay [11]; 5.96 µM in assay [12].
For the compound `Oc1ccccc1C=Nc1ccc(-c2nc3ccccc3s2)cc1`, the TGI is over 100 µM in assay [1]; 52.4 µM in assay [2]; over 100 µM in assay [3]; 45.4 µM in assay [4]; over 100 µM in assay [5]; over 100 µM in assay [6]. Moreover, the TGI in assay [7] was over 100 µM; in assay [8], over 100 µM; in assay [9] it was 50.5 µM; in [10], over 100 µM; in assay [11], over 100 µM; in assay [12], over 100 µM.
For `CC1(C)OC[C@@H]([C@@]2(COC(c3ccccc3)(c3ccccc3)c3ccccc3)CC=CC(=O)O2)O1`, the TGI in assay [1] was over 100 µM; in [2], 71.4 µM; in [3], over 100 µM; in assay [4], 41 µM; in assay [5] it was over 100 µM; in assay [6], over 100 µM. The TGI in assay [7] was 64.7 µM; in assay [8] it was over 100 µM; in [9], 31.1 µM; in assay [10] it was over 100 µM; in assay [11], over 100 µM; in assay [12], over 100 µM.
On to `CC(Oc1ccc(Cl)cc1Cl)C(=O)NN1C(=O)CC(=O)N(c2ccccc2)C1=S` (stereo not drawn), for which the TGI in [1] is over 100 µM; in assay [2] it was 95.1 µM; in [3], over 100 µM; in assay [4] it was over 100 µM; in assay [5], over 100 µM; in assay [6], over 100 µM. Also, the TGI in assay [7] was over 100 µM; in assay [8], over 100 µM; in assay [9] it was over 100 µM; in assay [10], 22.4 µM; in [11], over 100 µM; in assay [12] it was over 100 µM.
`COC(=O)c1c(O)ccc2c1c1c(n2Cc2cc(OC)cc(OC)c2)C(=O)c2ccccc2C1=O`: the TGI in assay [1] is 21.4 µM; in assay [2], over 100 µM; in [3], 56.7 µM; in assay [4] it was 5.73 µM; in assay [5], 55.9 µM; in [6], 90.3 µM. For the same compound, the TGI in assay [7] is 9.98 µM; in [8] it was 25.9 µM; in assay [9], 27.2 µM; in assay [10], over 100 µM; in [11] it was 28.2 µM; in assay [12] it was 40.5 µM.
On to `C/C(C=O)=C/[C@@]1(C)O[C@@H](C)[C@@](C)(O)[C@@H]1O`, for which the TGI is 34.6 µM in [1]; over 100 µM in assay [2]; 37.1 µM in assay [3]; 48.2 µM in [4]; over 100 µM in assay [5]; 40 µM in assay [6]. The TGI was over 100 µM in assay [7]; over 100 µM in assay [8]; over 100 µM in [9]; 7.12 µM in [10]; over 100 µM in [11]; 4.71 µM in assay [12].
For `O=c1c2cc(O)ccc2n2nnc3ccc(NCCNCCO)c1c32`, the TGI in assay [1] was > 100 µM and 24 µM; in [2], > 87.4 µM and 16.7 µM; in assay [3], 43 µM and > 61.9 µM; in [4], 26.4 µM and 14.5 µM; in assay [5], > 100 µM and 34 µM; in assay [6] it was 42 µM and 17.7 µM. In addition, the TGI in [7] was 65 µM and 31.7 µM; in assay [8] it was 15.9 µM and 14.9 µM; in assay [9], 23.5 µM and 13.5 µM; in [10], 14.7 µM and 4.29 µM; in assay [11], 7.43 µM and 13.3 µM; in assay [12], > 100 µM and 70.2 µM. Moreover, the GI50 in [2] is 25.1 µM and 6.77 µM; in [4] it was 10.9 µM and 3.43 µM; in assay [5] it was 22.5 µM and 9.69 µM; in assay [9], 9.4 µM and 4.34 µM.
Turning to `Cc1cc(-c2nc3c(F)cccc3s2)ccc1N`, the TGI in [1] was over 100 µM; in [2] it was over 100 µM; in assay [3], over 100 µM; in [4], over 100 µM; in [5] it was 76.2 µM; in [6], over 100 µM. For the same compound, the TGI in [7], in assay [9], in assay [10], in [11] and in assay [12] was over 100 µM throughout. The GI50 in assay [4] was over 100 µM; in assay [5], 1.68 µM.
